The values below come from patent US8846699B2, “Quinazoline derivatives as a multiplex inhibitor and method for the preparation thereof” (Hanmi Pharm. Co., Ltd., priority 2005, dated 2014).

SMILES strings stand for the structures.

For experiment [1], the system named is colon and rectal cancer cell line, SW-620. Kind of experiment: Inhibitory effect on growth of cancer cell line SW-620, SRB. Format: cell-based. The note with it: not having overexpressed EGFR and EGFR2. From the text:
(§1) A skin cancer cell line, A431 (ATCC: CRL-1555), a breast cancer cell line, SK-Br3 (ATCC: HTB-30), and a colon and rectal cancer cell line, SW-620 (ATCC: CCL-227) were used to test the degrees of cancer cell growth inhibition using a culture medium, DEME (Dulbecco's Modified Eagle's Medium, JBI) including 4.5 g/l of glucose and 1.5 g/l of sodium bicarbonate and supplemented with 10% FBS (fetal bovine serum, JBI).
(§2) The cancer cell lines stored in a liquid nitrogen tank were each quickly thawed at 37° C., and centrifuged to remove the medium. The resulting cell pellet was mixed with a culture medium, incubated in a culture flask at 37° C. under 5% CO2 for 2 to 3 days, and the medium was removed. The remaining cells were washed with DPBS (Dulbecco's Phosphate Buffered Saline, JBI) and separated from the flask by using Trypsin-EDTA solution, and the separated cells were diluted with a culture medium to a concentration of 1.0×10^6 cells/ml in case of A431 and SW-620, and 2.0×10^6 cells/ml in case of SK-Br3. 100 μl of the diluted cell solution was added to each well of a 96-well plate, which was incubated at 37° C. under 5% CO2 for 1 day.
(§3) In case that the test compound was not soluble in DMSO, a small amount of 1% HCl was added thereto and treated in a 40° C. water bath for 30 mins until complete dissolution was attained. The test compound solution was diluted with a culture medium to a final concentration of 10 μM, and then diluted 10 times serially to 10^−4. The final concentration of DMSO was less than 1%, and the control compounds of Test Example 1 were used at a concentration of 0.0001 to 10 μM.
(§4) The medium was removed from each well of the 96-well microplate, 100 μl of a diluted test compound solution was added to each well holding cultured cells, and the microplate was incubated at 37° C. under 5% CO2 for 72 hours. After removing the medium from the plate, 50 μl of 10% trichloroacetic acid was added to each well, and the plate was kept at 37° C. for 1 hour to fix the cells to the bottom of the plate. 10% trichloroacetic acid was removed from each well, the plate was dried, 100 μl of an SRB (Sulforhodamine-B, Sigma) dye solution was added thereto, and reacted for 10 mins. The SRB dye solution was prepared by dissolving SRB in 1% acetic acid to a concentration of 0.4%. After removing the dye solution, the plate was washed with water, and dried. When the dye solution was not removed by water, 1% acetic acid was used.
(§5) 150 μl of 10 mM trisma base (Sigma) was added to each well, and the absorbance at 570 nm was determined with a microplate reader (Molecular device).

Experiment [2] concerns Human Umbilical Vein Endothelial Cell (HUVEC). Description: Inhibitory effect on growth of human umbilical vein endothelial cell (HUVEC), MTS. Conditions: 10 ng/ml VEGF, absorbance 490 nm. Format: cell-based. The procedure:
HUVECs (Young Science, Inc) were suspended in a culture medium, EBM-2 (Endothelial Basic Media, Cambrex) supplemented with 2% bovine serum (Cambrex) and auxiliary additives for HUVEC culture (e.g., EGF, VEGF, FGF, etc., Cambrex), inoculated into a culture flask coated with 1% gelatin, and incubated in an incubator at 37° C. under 5% CO2 and 100% humidity.
100 μl of 5% bovine serum medium containing 10 ng/ml of vascular endothelial growth factor (VEGF) and auxiliary additives, while excluding other growth factors was added to each well of a 96-well plate. […] DMSO (Dimethylsulfoxide) was used to dissolve the test compounds, and the final concentration of DMSO was less than 1%.
100 μl of the diluted cell solution was added to each well of the 96-well plate, which was incubated in an incubator for 96 hours.
Then, 20 μl of MTS ([…], Promega) solution was added to each well of the plate, and the plate was incubated in an incubator for 4 hours to induce discoloration. After 4 hours, the pellets were dissolved by way of a thorough shaking, and the absorbance at 490 nm was determined.

Experiment [3] concerns breast cancer cell line, SK-Br3. Description: Inhibitory effect on growth of cancer cell line SK-Br3, SRB. Conditions: overexpressed EGFR2 (HER-2). Format: cell-based.
From the text: as §1, §2, §3, §4, §5

Experiment [4] relates to skin cancer cell line, A431. Kind of experiment: Inhibitory effect on growth of cancer cell line A431, SRB. Format: cell-based. The note with it: overexpressed EGFR1 (HER-1).
From the text: as §1, §2, §3, §4, §5

A further experiment concerns the target EGFR1 (HER-1) (Homo sapiens (Human), UniProt P00533). Kind of experiment: EGFR1 (HER-1) enzyme assay, fluorescence polarization. Format: biochemical. The note with it: 100 μM ATP, poly(Glu, Tyr) substrate. (In general: In fluorescence polarisation assays a small probe gives low polarisation when free and higher when bound to something large.)

Sequence of EGFR1 (HER-1) (P00533 25-1210): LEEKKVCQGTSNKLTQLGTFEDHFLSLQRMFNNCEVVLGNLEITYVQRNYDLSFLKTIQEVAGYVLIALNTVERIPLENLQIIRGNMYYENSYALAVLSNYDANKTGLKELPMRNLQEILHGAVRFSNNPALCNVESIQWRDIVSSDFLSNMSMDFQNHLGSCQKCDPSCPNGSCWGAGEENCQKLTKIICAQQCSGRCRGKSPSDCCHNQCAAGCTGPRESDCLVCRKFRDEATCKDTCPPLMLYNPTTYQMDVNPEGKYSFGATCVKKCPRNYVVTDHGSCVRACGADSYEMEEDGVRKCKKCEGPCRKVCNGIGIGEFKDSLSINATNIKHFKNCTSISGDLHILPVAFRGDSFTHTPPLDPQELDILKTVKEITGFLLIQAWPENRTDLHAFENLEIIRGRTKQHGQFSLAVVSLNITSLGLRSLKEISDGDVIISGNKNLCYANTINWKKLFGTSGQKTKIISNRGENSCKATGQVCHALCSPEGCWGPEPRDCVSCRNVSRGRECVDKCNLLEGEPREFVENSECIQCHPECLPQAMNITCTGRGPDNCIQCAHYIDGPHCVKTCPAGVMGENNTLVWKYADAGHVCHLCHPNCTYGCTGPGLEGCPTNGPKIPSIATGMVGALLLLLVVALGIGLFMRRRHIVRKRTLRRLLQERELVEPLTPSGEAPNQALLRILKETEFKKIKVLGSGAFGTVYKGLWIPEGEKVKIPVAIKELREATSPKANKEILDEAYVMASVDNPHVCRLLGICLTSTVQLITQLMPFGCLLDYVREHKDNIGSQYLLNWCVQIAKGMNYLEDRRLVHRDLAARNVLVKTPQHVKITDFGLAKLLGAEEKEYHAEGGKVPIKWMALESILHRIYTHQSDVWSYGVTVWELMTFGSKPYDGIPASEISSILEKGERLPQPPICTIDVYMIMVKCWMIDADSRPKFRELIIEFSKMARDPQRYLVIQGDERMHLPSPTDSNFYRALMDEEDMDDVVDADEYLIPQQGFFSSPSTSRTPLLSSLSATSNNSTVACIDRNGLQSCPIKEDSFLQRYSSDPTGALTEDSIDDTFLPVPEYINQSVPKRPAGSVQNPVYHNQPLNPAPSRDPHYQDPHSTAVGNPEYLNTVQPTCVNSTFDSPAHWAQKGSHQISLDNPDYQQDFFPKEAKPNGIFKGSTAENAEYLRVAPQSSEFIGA

Turning to `Clc1ccc(Nc2nnc(Cc3ccncc3)c3ccccc23)cc1` [Control 1, PTK787, reference compound], the IC50 – broadly, the concentration needed to halve the response being measured – in experiment [1] (Homo sapiens, 72 h) was determined as 10000 nM; in experiment [2] (Homo sapiens, 96 h), 40 nM; in experiment [3] (Homo sapiens, SK-BR-3, 72 h) it was 10000 nM; in experiment [4] (Homo sapiens, A-431, 72 h), 10000 nM.
Take `COc1cc2c(Nc3ccc(Br)cc3F)ncnc2cc1OCC1CCN(C)CC1` [Control 2, ZD6474, reference compound]: the 50% inhibitory concentration (IC50) in experiment [1] (Homo sapiens, 72 h) was 4500 nM; in experiment [2] (Homo sapiens, 96 h), 70 nM; in experiment [3] (Homo sapiens, SK-BR-3, 72 h) it was 2600 nM; in experiment [4] (Homo sapiens, A-431, 72 h), 28 nM.
With `C=C(C)C(=O)Nc1cc2c(Nc3ccc(Br)cc3F)ncnc2cc1OCCNC(C)=O` [Example 76, N-[7-(2-acetylamino-ethoxy)-4-(4-bromo-2-fluoro-phenylamino)-quinazolin-6-yl]-2-methyl-acrylamide], the IC50 against EGFR1 (HER-1) worked out at 1020 nM; in experiment [3] (Homo sapiens, SK-BR-3, 72 h) it was 6340 nM; in experiment [4] (Homo sapiens, A-431, 72 h) it was 2880 nM.
On the same counts, the results for `C=CC(=O)N(C)c1cc2c(Nc3ccc(Br)cc3F)ncnc2cc1OCCNC(C)=O` [Example 78, N-[7-(2-acetylamino-ethoxy)-4-(4-bromo-2-fluoro-phenylamino)-quinazolin-6-yl]-N-methyl-acrylamide] are 389 nM, 1210 nM and 396 nM.
Take `C=CC(=O)Nc1cc2c(Nc3ccc(Br)cc3F)ncnc2cc1OC1CCN(C(C)=O)C1` (stereo not drawn) [Example 88, N-[7-(1-acetyl-pyrrolidin-3-yloxy)-4-(4-bromo-2-fluoro-phenylamino)-quinazolin-6-yl]-acrylamide]: the IC50 against EGFR1 (HER-1) was 94 nM; in experiment [1] (Homo sapiens, 72 h), 723 nM; in experiment [2] (Homo sapiens, 96 h), 10000 nM; in experiment [3] (Homo sapiens, SK-BR-3, 72 h), 297 nM; in experiment [4] (Homo sapiens, A-431, 72 h) it was 99 nM.
Turning to `C=CC(=O)Nc1cc2c(Nc3ccc(Br)cc3F)ncnc2cc1OC1CCCN(C(C)=O)C1` (stereo not drawn) [Example 89, N-[7-(1-acetyl-piperidin-3-yloxy)-4-(4-bromo-2-fluoro-phenylamino)-quinazolin-6-yl]-acrylamide], the IC50 amounted to 128 nM against EGFR1 (HER-1); 10000 nM in experiment [1] (Homo sapiens, 72 h); 10000 nM in experiment [2] (Homo sapiens, 96 h); 965 nM in experiment [3] (Homo sapiens, SK-BR-3, 72 h); 368 nM in experiment [4] (Homo sapiens, A-431, 72 h).
In the case of `C=CC(=O)Nc1cc2c(Nc3ccc(Br)cc3F)ncnc2cc1OCCNC(=O)C1CCCN1C` (stereo not drawn) [Example 98, 1-methyl-pyrrolidine-2-carboxylic acid {2-[6-acryloylamino-4-(4-bromo-2-fluoro-phenylamino)-quinazolin-7-yloxy]-ethyl}-amide], the IC50 on EGFR1 (HER-1) turned out to be 69 nM; in experiment [1] (Homo sapiens, 72 h), 9570 nM; in experiment [3] (Homo sapiens, SK-BR-3, 72 h), 179 nM; in experiment [4] (72 hours), 78 nM.
As for `C=CC(=O)Nc1cc2c(Nc3ccc(Br)cc3F)ncnc2cc1OCCNC(=O)C1CCCN1C` (stereo not drawn) [Example 100, 1-methyl-pyrrolidine-2-carboxylic acid {2-[6-acryloylamino-4-(4-bromo-2-fluoro-phenylamino)-quinazolin-7-yloxy]-ethyl}-amide], the IC50 on EGFR1 (HER-1) is 24 nM; in experiment [1] (72 hours) it was 10000 nM; in experiment [3] (72 hours) it was 101 nM; in experiment [4] (72 hours) it was 25 nM.
Take `C=CC(=O)Nc1cc2c(Nc3ccc(F)c(Cl)c3)ncnc2cc1OCCNC(C)=O` [Example 111, N-[7-(2-acetylamino-ethoxy)-4-(3-chloro-4-fluoro-phenylamino)-quinazolin-6-yl]-acrylamide]: the IC50 was 12 nM against EGFR1 (HER-1); 8530 nM in experiment [1] (Homo sapiens, 72 h); 26 nM in experiment [3] (Homo sapiens, SK-BR-3, 72 h); 9 nM in experiment [4] (Homo sapiens, A-431, 72 h).
For `C=CC(=O)Nc1cc2c(Nc3ccc(Br)cc3C(F)(F)F)ncnc2cc1OCCNC(C)=O` [Example 114, N-[7-(2-acetylamino-ethoxy)-4-(4-bromo-2-trifluoromethyl-phenylamino)-quinazolin-6-yl]-acrylamide], the IC50 was determined as 456 nM at EGFR1 (HER-1); 897 nM in experiment [3] (Homo sapiens, SK-BR-3, 72 h); 468 nM in experiment [4] (Homo sapiens, A-431, 72 h).
Take `C=CC(=O)Nc1cc2c(Nc3cc(OC)c(Cl)cc3Cl)ncnc2cc1OCCNC(C)=O` [Example 132, N-[7-(2-acetylamino-ethoxy)-4-(2,4-dichloro-5-methoxy-phenylamino)-quinazolin-6-yl]-acrylamide]: the IC50 turned out to be 42 nM against EGFR1 (HER-1); 2700 nM in experiment [1] (Homo sapiens, 72 h); 36 nM in experiment [3] (Homo sapiens, SK-BR-3, 72 h); 47 nM in experiment [4] (Homo sapiens, A-431, 72 h).
Turning to `C=CC(=O)Nc1cc2c(Nc3ccc(Br)c(Cl)c3)ncnc2cc1OCCNC(=O)CN(C)C` [Example 152], the IC50 at EGFR1 (HER-1) was 75 nM; in experiment [1] (72 hours), 10000 nM; in experiment [2] (96 hours) it was 10000 nM; in experiment [3] (72 hours) it was 647 nM; in experiment [4] (72 hours), 99 nM.
Regarding `C=CC(=O)Nc1cc2c(Nc3ccc(Br)cc3F)ncnc2cc1OCC(C)(C)NC(=O)CN(C)C` [Example 154, N-{4-(4-bromo-2-fluoro-phenylamino)-7-[2-(2-dimethylamino-acetylamino)-2-methyl-propoxy]-quinazolin-6-yl}-acrylamide], the IC50 is 222 nM at EGFR1 (HER-1); 9130 nM in experiment [1] (Homo sapiens, 72 h); 240 nM in experiment [3] (Homo sapiens, SK-BR-3, 72 h); 248 nM in experiment [4] (Homo sapiens, A-431, 72 h).
As to `C=CC(=O)Nc1cc2c(Nc3ccc(Br)cc3F)ncnc2cc1OCC(NC(=O)CN(C)C)C(C)C` (stereo not drawn) [Example 156, N-{4-(4-bromo-2-fluoro-phenylamino)-7-[2-(2-dimethylamino-acetylamino)-3-methyl-buthoxy]-quinazolin-6-yl}-acrylamide], the IC50 came out at 149 nM against EGFR1 (HER-1); 3270 nM in experiment [1] (72 hours); 10000 nM in experiment [2] (96 hours); 462 nM in experiment [3] (72 hours); 196 nM in experiment [4] (72 hours).
On the same counts, the results for `C=CC(=O)Nc1cc2c(Nc3ccc(Br)c(Cl)c3F)ncnc2cc1OC[C@H](C)NC(=O)CN(C)C` [Example 158, (S)—N-4-(4-bromo-3-chloro-2-fluoro-phenylamino)-7-[2-(2-dimethylamino-acetylamino)-propoxy]-quinazolin-6-yl-acrylamide] are 23.1 nM, 5150 nM, 10000 nM, 381 nM and 259 nM.
Consider `C=CC(=O)Nc1cc2c(Nc3cc(OC)c(Cl)cc3OC)ncnc2cc1OCCNC(=O)CN(C)C` [Example 166, N-{4-(4-chloro-2,5-dimethoxy-phenylamino)-7-[2-(2-dimethylamino-acetylamino)-ethoxy]-quinazolin-6-yl}-acrylamide], for which the IC50 against EGFR1 (HER-1) was determined as 14 nM; in experiment [1] (Homo sapiens, 72 h), 5650 nM; in experiment [3] (Homo sapiens, SK-BR-3, 72 h) it was 27 nM; in experiment [4] (Homo sapiens, A-431, 72 h) it was 30 nM.
